The values that follow come from publication PMC2905478 (Peptides, 2010).

SMILES strings stand for the structures. Like-named read-outs stand apart in the source and are kept apart here. *1 amine or outer side, *2 acyl side, *3 side chain or, on linkers, in order; H or OH if unused. Where a SMILES comes first, the peptide text is derived from it. [ ]: non-standard residue; d: D form. X1 = O=C(C[C@@H](N[*:1])c1ccc(Cl)cc1)[*:2]; β3hPhg = O=C(C[C@@H](N[*:1])c1ccccc1)[*:2]; Nle = CCCC[C@H](N)C(=O)O A value given as a limit tells only on which side of the number the result lay.

Test [1] concerns the target T1, hNMBR (Homo sapiens, UniProt P28336). The test is described as follows: biochemical.
The target of test [2] is T2, hGRPR (Homo sapiens, UniProt P30550). The settings on record: binding, HuTu-80 cells, native hGRPR.
T2 sequence (P30550 whole entry): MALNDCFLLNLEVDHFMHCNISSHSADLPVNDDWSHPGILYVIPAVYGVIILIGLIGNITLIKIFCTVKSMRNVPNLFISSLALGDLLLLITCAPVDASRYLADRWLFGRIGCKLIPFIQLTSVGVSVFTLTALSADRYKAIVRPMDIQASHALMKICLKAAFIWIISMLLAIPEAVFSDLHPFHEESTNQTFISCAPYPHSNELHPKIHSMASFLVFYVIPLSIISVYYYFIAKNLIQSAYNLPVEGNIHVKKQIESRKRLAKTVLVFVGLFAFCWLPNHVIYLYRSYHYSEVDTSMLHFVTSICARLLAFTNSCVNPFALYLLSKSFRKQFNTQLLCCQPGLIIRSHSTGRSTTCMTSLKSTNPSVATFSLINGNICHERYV
Test [3] addresses T3, hBRS-3 (Homo sapiens, UniProt P32247). To be noted: for agonist efficacy for [3H]IP generation (full/partial agonist): each of the hBRS-3 containing cells, concentrations up to 10,000 nM; for fold less potent than peptide #1 at activating PLC: range over three hBRS-3 containing cells.
Test [4] addresses T2, hGRPR. The experiment in a line: Stimulation of [3H]IP generation. The settings on record: for fold less potent than peptide #1 at activating PLC: hGRPR containing HuTu-80 and Balb cells.
Test [5] concerns the target T1, hNMBR. The experiment in a line: biochemical. The settings on record: IC50 (nM) hNMBR/H1299, half-maximal inhibition of binding.
Test [6] has as its target T2, hGRPR. The experiment in a line: Stimulation of [3H]IP generation.
Test [7] has as its target T3, hBRS-3. To be noted: binding affinities.
The target in test [8] is T3, hBRS-3. The settings on record: for affinities from binding studies for the hBRS-3 receptor, range over 3 cell lines: 3 hBRS-3 cell lines (NC-N417, Balb, H1299).
Test [9] deals with T3, hBRS-3. To be noted: binding; hBRS-3 containing cells (H1299, Balb; Tables 2 and 3).
Test [10] deals with T1, hNMBR. The test is described as follows: Stimulation of [3H]IP generation.
Test [11] has as its target T1, hNMBR. The settings on record: binding; hNMBR/H1299 and hNMBR/Balb cells.
In test [12] the target is T3, hBRS-3. The experiment in a line: biochemical. To be noted: IC50 (nM) hBRS-3/N417, half-maximal inhibition of binding; 50 pM radioligand, 22 °C, 60 min.
The target in test [13] is T1, hNMBR. The test is described as follows: Stimulation of [3H]IP generation. To be noted: for fold less potent than peptide #1 at activating PLC: hNMBR containing H1299 and Balb cells.

T3 sequence (P32247 whole entry): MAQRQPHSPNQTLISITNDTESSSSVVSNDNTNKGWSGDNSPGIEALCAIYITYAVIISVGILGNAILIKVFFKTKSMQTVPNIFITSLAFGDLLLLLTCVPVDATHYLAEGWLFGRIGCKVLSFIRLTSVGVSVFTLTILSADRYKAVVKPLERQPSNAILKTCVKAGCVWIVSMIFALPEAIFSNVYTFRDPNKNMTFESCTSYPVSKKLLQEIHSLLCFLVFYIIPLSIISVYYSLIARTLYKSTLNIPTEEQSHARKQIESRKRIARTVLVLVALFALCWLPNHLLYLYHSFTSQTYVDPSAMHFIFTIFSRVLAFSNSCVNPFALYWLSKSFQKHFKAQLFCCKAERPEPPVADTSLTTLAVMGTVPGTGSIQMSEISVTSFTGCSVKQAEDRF
T1 sequence (P28336 whole entry): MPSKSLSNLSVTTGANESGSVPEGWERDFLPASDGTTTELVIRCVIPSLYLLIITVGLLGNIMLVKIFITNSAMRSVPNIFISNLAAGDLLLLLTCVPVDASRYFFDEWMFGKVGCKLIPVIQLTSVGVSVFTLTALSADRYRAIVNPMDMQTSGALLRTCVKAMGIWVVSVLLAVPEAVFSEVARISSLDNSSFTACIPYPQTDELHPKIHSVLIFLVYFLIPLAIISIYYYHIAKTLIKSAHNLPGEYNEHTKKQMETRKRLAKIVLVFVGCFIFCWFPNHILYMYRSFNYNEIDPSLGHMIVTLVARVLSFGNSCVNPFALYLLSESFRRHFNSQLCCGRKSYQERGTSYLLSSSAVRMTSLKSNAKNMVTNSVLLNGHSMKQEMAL

As usually defined, the IC50 is the concentration that gives 50% inhibition. High values mean weaker potency, low ones greater potency. For orientation: EC50 means the concentration at which the effect is half-maximal. Consider `CCCC[C@H](NC(=O)[C@H](Cc1ccccc1)NC(=O)[C@H](Cc1c[nH]cn1)NC(=O)C[C@@H](NC(=O)[C@@H](NC(=O)[C@H](C)NC(=O)[C@H](Cc1c[nH]c2ccccc12)NC(=O)[C@H](CCC(N)=O)NC(=O)[C@H](N)Cc1ccc(O)cc1)C(C)C)c1ccccc1)C(N)=O` [Peptide 2, [DTyr^6, (R)-Apa^11, Phe^13, Nle^14]Bn(6-14)] (H-[dY]QWAV[β3hPhg]HF[Nle]-NH2), for which the concentration for half-maximal inhibition (IC50) was found to be 0.158 ± 0.008 µM against hNMBR [1], 66.1 ± 3.4 nM on hNMBR [5] and 4.3 ± 0.2 nM on hBRS-3 [12]. For the same compound, the “fold lower affinity than GRP or peptide #1” value on hGRPR [2] was 475 fold. The “selectivity (PLC potency) for hBRS-3 cells over hGRPR containing cells” value at hBRS-3 [3] (Tables 2-4) is recorded as 10 to 26 fold. Also, the “agonist efficacy for [3H]IP generation (full/partial agonist)” value on hBRS-3 [3] was “none functioning as a partial agonist”. In addition, the “fold less potent than peptide #1 at activating PLC” value on hBRS-3 [3] is on record as 4–14 fold; at hGRPR [4], 10–25 fold; at hNMBR [13], over 250 fold. Moreover, the half-maximal effective concentration (EC50) at hGRPR [4] came to 0.318 ± 0.025 µM; on hGRPR [6], 0.058 ± 0.002 µM; on hNMBR [10] it was 0.038 ± 0.0012 µM; on hNMBR [13] it was 0.195 ± 0.011 µM. In addition, the “selectivity for hBRS-3 expressed in Balb cells over hGRPR in the same cells” value at hBRS-3 [7] amounted to 32 fold. Moreover, the “selectivity for hBRS-3 expressed in Balb cells than hNMBR in the same cells” value at hBRS-3 [7] amounted to 47 fold. Further, on hBRS-3 [8], the “affinities from binding studies for the hBRS-3 receptor, range over 3 cell lines” value is “nM affinities”. At hBRS-3 [8] (binding affinities), the “selectivity for hBRS-3 in NCI-N417 cell over hGRPR natively expressed in Hutu cells” value came to 13 fold. In addition, the “selectivity for hBRS-3 natively expressed in NCI-N417 cells than hNMBR expressed in NCI-H1299 cells” value at hBRS-3 [8] (binding affinities) is recorded as 15 fold. Further, the “fold lower affinity than the universal ligand, peptide #1” value on hBRS-3 [8] (binding, native hBRS-3 in NCI-N417 cells) was determined as 3 fold. Also, the “selectivity for hBRS-3 over hGRPR in the different cells based on binding affinities” value on hBRS-3 [8] (range over cells) is 13–32 fold. At hBRS-3 [8] (range over cells), the “selectivity for hBRS-3 over the hNMBR based on binding affinities” value lay within 15 to 46 fold. For the same compound, the “fold lower affinity than peptide #1, range over hBRS-3 cell lines” value at hBRS-3 [9] is on record as 4–49 fold. Also, the “fold lower affinity than NMB (and peptide #1)” value at hNMBR [11] is reported as 200–1100 fold.

Turning to `CCCC[C@H](NC(=O)[C@H](Cc1ccccc1)NC(=O)[C@H](Cc1c[nH]cn1)NC(=O)C[C@@H](NC(=O)[C@@H](NC(=O)[C@H](C)NC(=O)[C@H](Cc1c[nH]c2ccccc12)NC(=O)[C@H](CCC(N)=O)NC(=O)[C@H](N)Cc1ccc(O)cc1)C(C)C)c1ccc(Cl)cc1)C(N)=O` [Peptide 3, [DTyr^6, (R)-Apa^11-4Cl, Phe^13, Nle^14]Bn(6-14)] (H-[dY]QWAV[X1]HF[Nle]-NH2), the “fold lower affinity than GRP or peptide #1” value on hGRPR [2] came to 750 fold. Moreover, the “agonist efficacy for [3H]IP generation (full/partial agonist)” value on hBRS-3 [3] is “none functioning as a partial agonist”. Also, the “fold less potent than peptide #1 at activating PLC” value at hBRS-3 [3] is given as 3.3–10 fold; on hGRPR [4] it was 123–270 fold; at hNMBR [13] it was over 1000 fold. Further, on hBRS-3 [8], the “affinities from binding studies for the hBRS-3 receptor, range over 3 cell lines” value is reported as “nM affinities”. The “fold lower affinity than peptide #1, range over hBRS-3 cell lines” value on hBRS-3 [9] is recorded as 2.5–17 fold. The “fold lower affinity than NMB (and peptide #1)” value on hNMBR [11] is reported as 745–5900 fold.
